This passage reports IC50 results from paper PMC13047053, “Crystal structure of human INPP5K with an allosteric inhibitor reveals the structural basis for species specific potency” (Scientific Reports, 2026).

A word on the pIC50: it is the IC50 on a negative log10 scale, so that one unit is a factor of ten.

This experiment addresses T1, full-length human INPP5K (INPP5K-full) (Homo sapiens, UniProt Q9BT40).
T1 construct: full-length human INPP5K (amino acids 1–448, UniProt ID: Q9BT40); FLAG (N); made in house; host or cells: Expi293 cells (pcDNA3.4, transient)
T1 sequence (Q9BT40 1-448): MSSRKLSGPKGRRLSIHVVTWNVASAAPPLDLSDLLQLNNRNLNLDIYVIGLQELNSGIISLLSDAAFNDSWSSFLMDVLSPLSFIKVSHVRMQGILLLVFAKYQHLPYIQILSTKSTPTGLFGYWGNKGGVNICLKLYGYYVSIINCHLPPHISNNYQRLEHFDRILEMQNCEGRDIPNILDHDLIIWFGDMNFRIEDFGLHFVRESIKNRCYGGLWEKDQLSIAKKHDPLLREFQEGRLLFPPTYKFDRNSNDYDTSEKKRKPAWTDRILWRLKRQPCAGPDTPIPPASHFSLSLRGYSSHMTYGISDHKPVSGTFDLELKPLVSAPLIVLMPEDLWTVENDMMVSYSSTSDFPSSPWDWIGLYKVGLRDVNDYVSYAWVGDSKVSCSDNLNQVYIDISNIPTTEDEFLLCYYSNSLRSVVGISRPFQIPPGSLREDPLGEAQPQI
The experiment can be described thus: Fluorescence polarization assay to evaluate phosphatase inhibition. Type of experiment: biochemical. Conditions: 20 µM diC8-PI(3,4,5)P3, 30 min. The source says: The protein purification is described in detail elsewhere. Briefly, full-length human INPP5K (amino acids 1–448, UniProt ID: Q9BT40), rat INPP5K (aa 1–446, UniProt ID: Q9R0B6), mouse INPP5K (aa 1–468, UniProt ID: Q8C5L6), hamster INPP5K (aa 1–453, UniProt ID: G3HTF6), guinea pig INPP5K (aa 1–473, UniProt ID: H0V8T7) containing an N-terminal FLAG-tag, full-length human SHIP2 (aa 1–1 258) containing a C-terminal FLAG-tag, and full-length human PIPP (amino acids 1–1 006) containing an N-terminal His8-tag were all cloned into the pcDNA3.4 expression vector and transiently expressed in Expi293 cells (Thermo Fisher Scientific). […] The purity of the protein obtained was evaluated using SDS-PAGE.
HTS assays were performed as described previously. […] Fluorescence polarization was evaluated using an Envision plate reader (PerkinElmer, U.S. LLC, Shelton, CT, USA) at 531/595 nm (excitation/emission) and calculated as 1 000 × [(I||- (G × I⊥))/(I||+ (G × I⊥))], where I|| is the parallel intensity, I⊥ is the perpendicular intensity, and G = 2.25. The amount of diC8-PI(3,4)P₂ product (P) was determined by standard curve fitting, and the percentage inhibition was calculated using the following equation: 100 × (Pctrl—P)/(Pctrl—Pblank), where Pctrl is the no-inhibitor control and Pblank is the no-enzyme control. […]
(Fluorescence polarisation rises when a labelled molecule tumbles more slowly, as on binding a larger partner.)

pIC50: −log10 of the molar value.

In turn, `CC(C)c1sc(NC(=O)c2ccccc2)c(C(=O)O)c1-c1ccccc1` [CPD-1] gave a pIC50 of 5.43.
